# Data: US20040198981A1, “Tricyclic dihydroquinoline derivatives,method for preparing same and pharmaceutical compositions containing same” (priority 2001, published 2004)
# pIC50: −log10 of the molar value.
# System: murine leukaemia, L1210
# Experiment: In vitro cytotoxicity, Microculture Tetrazolium Assay
# Assay type: cell-based
# Conditions: Mus musculus, 48 h; L1210 cells, incubated for 2 days; read-out: IC50 (concentration of cytotoxic agent which inhibits proliferation of the treated cells by 50%)
# Experimental: Three cell lines were used:
# 1 murine leukaemia, L1210,
# 1 human non-small-cell lung carcinoma, A549,
# 1 human colon carcinoma, HT29.
# The cells are cultured in RPMI 1640 complete culture medium containing 10% foetal calf serum, 2 mM glutamine, 50 units/ml of penicillin, 50 μg/ml of streptomycin and 10 mM Hepes, pH=7.4. The cells are distributed on microplates and are exposed to the cytotoxic compounds. The cells are then incubated for 2 days (L1210) or 4 days (A549, HT29). The number of viable cells is then quantified by a colorimetric assay, the Microculture Tetrazolium Assay (Cancer Res. 1987, 47, 939-942).
smiles,measurement,value
"COc1cc(C2C3=C(COC3=S)N(Cc3ccccc3)c3cc4c(cc32)OCO4)cc(OC)c1OC (stereo not shown) [Example 5, 4-Benzyl-6,7-methylenedioxy-9-(3,4,5-trimethoxyphenyl)-4,9-dihydrofuro[3,4-b]quinoline-1(3H)-thione]",pIC50,6.72
